Laboratory results as given in PubChem BioAssay (NCI).
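Where inhibition never reached the appropriate level, the endpoint shown equals the highest concentration tested. Otherwise, values were interpolated linearly from a five-concentration, 48-hour dose response in 96-well plates. GI50 = concentration required for 50% inhibition of growth. TGI denotes the concentration required for complete inhibition of growth.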 *1 amine or outer side, *2 acyl side, *3 side chain or, on linkers, in order; H or OH if unused. Where a SMILES comes first, the peptide text is derived from it. [ ]: non-standard residue; d: D form. The star is where a group is joined. X11 = C/C=C/CC(C)C(O)[C@H](N[*:1])C(=O)[*:2]; Decanoyl = CCCCCCCCCC(=O)*; Leu(ol) = CC(C)C[C@H](N)CO; Iva = CC[C@](C)(N)C(=O)O; Aib = CC(C)(N)C(=O)O

Legend:
Assay in all cases: NCI tumour cell line growth inhibition, 48 h
786-0 renal = test system: 786-0 renal
A498 renal = test system: A498 renal
A549 NSCLC = test system: A549 NSCLC
ACHN renal = test system: ACHN renal
BT-549 breast = test system: BT-549 breast
CAKI-1 renal = test system: CAKI-1 renal
CCRF-CEM leukemia = test system: CCRF-CEM leukemia
COLO 205 colon = test system: COLO 205 colon
DU-145 prostate = test system: DU-145 prostate
EKVX NSCLC = test system: EKVX NSCLC
HCC-2998 colon = test system: HCC-2998 colon
HCT-116 colon = test system: HCT-116 colon
HCT-15 colon = test system: HCT-15 colon
HL-60(TB) leukemia = test system: HL-60(TB) leukemia
HOP-62 NSCLC = test system: HOP-62 NSCLC
HOP-92 NSCLC = test system: HOP-92 NSCLC
HS 578T breast = test system: HS 578T breast
HT29 colon = test system: HT29 colon
IGROV1 ovarian = test system: IGROV1 ovarian
K-562 leukemia = test system: K-562 leukemia
KM12 colon = test system: KM12 colon
LOX IMVI melanoma = test system: LOX IMVI melanoma
M14 melanoma = test system: M14 melanoma
MALME-3M melanoma = test system: MALME-3M melanoma
MCF7 breast = test system: MCF7 breast
MDA-MB-231 breast = test system: MDA-MB-231 breast
MDA-MB-435 = test system: MDA-MB-435
MOLT-4 leukemia = test system: MOLT-4 leukemia
NCI-H226 lung = test system: NCI-H226 lung
NCI-H23 lung = test system: NCI-H23 lung
NCI-H460 lung = test system: NCI-H460 lung
NCI-H522 lung = test system: NCI-H522 lung
NCI/ADR-RES ovarian = test system: NCI/ADR-RES ovarian
OVCAR-3 ovarian = test system: OVCAR-3 ovarian
OVCAR-4 ovarian = test system: OVCAR-4 ovarian
OVCAR-5 ovarian = test system: OVCAR-5 ovarian
OVCAR-8 ovarian = test system: OVCAR-8 ovarian
PC-3 prostate = test system: PC-3 prostate
RPMI-8226 leukemia = test system: RPMI-8226 leukemia
RXF 393 renal = test system: RXF 393 renal
SF-268 CNS = test system: SF-268 CNS
SF-295 CNS = test system: SF-295 CNS
SF-539 CNS = test system: SF-539 CNS
SK-MEL-2 melanoma = test system: SK-MEL-2 melanoma
SK-MEL-28 melanoma = test system: SK-MEL-28 melanoma
SK-MEL-5 melanoma = test system: SK-MEL-5 melanoma
SK-OV-3 ovarian = test system: SK-OV-3 ovarian
SN12C renal = test system: SN12C renal
SNB-19 CNS = test system: SNB-19 CNS
SNB-75 CNS = test system: SNB-75 CNS
SR leukemia = test system: SR leukemia
SW-620 colon = test system: SW-620 colon
T-47D breast = test system: T-47D breast
TK-10 renal = test system: TK-10 renal
U251 CNS = test system: U251 CNS
UACC-257 melanoma = test system: UACC-257 melanoma
UACC-62 melanoma = test system: UACC-62 melanoma
UO-31 renal = test system: UO-31 renal

SMILES: C/C=C/CC(C)C(O)[C@H](NC(=O)[C@@H]1CCCN1C(=O)[C@](C)(CC)NC(=O)CCCCCCCCC)C(=O)N[C@@](C)(CC)C(=O)N[C@@H](CCC(N)=O)C(=O)N[C@H](CCC(N)=O)C(=O)NC(C)(C)C(=O)NC(C)(C)C(=O)N[C@@H](CCC(N)=O)C(=O)N[C@H](CC(C)C)C(=O)N[C@H](CO)CC(C)C (stereo partly drawn) (Decanoyl-[Iva]P[X11][Iva]Q[dQ][Aib][Aib]Q[dL][Leu(ol)])
- GI50 (786-0 renal): 1.81 µM
- TGI (786-0 renal): 3.43 µM
- GI50 (A498 renal): 1.9 µM
- TGI (A498 renal): 3.44 µM
- GI50 (A549 NSCLC): 1.91 µM
- TGI (A549 NSCLC): 3.92 µM
- GI50 (ACHN renal): 1.8 µM
- TGI (ACHN renal): 3.29 µM
- GI50 (BT-549 breast): 1.8 µM
- TGI (BT-549 breast): 3.36 µM
- GI50 (CAKI-1 renal): 1.69 µM
- TGI (CAKI-1 renal): 3.11 µM
- GI50 (CCRF-CEM leukemia): 1.86 µM
- TGI (CCRF-CEM leukemia): 3.65 µM
- GI50 (COLO 205 colon): 1.96 µM
- TGI (COLO 205 colon): 3.81 µM
- GI50 (DU-145 prostate): 1.79 µM
- TGI (DU-145 prostate): 3.18 µM
- GI50 (EKVX NSCLC): 1.74 µM
- TGI (EKVX NSCLC): 3.29 µM
- GI50 (HCC-2998 colon): 1.78 µM
- TGI (HCC-2998 colon): 3.42 µM
- GI50 (HCT-116 colon): 1.89 µM
- TGI (HCT-116 colon): 3.57 µM
- GI50 (HCT-15 colon): 1.86 µM
- TGI (HCT-15 colon): 3.67 µM
- GI50 (HL-60(TB) leukemia): 1.74 µM
- TGI (HL-60(TB) leukemia): 3.39 µM
- GI50 (HOP-62 NSCLC): 1.63 µM
- TGI (HOP-62 NSCLC): 3.27 µM
- GI50 (HOP-92 NSCLC): 1.62 µM
- TGI (HOP-92 NSCLC): 3.25 µM
- GI50 (HS 578T breast): 1.8 µM
- TGI (HS 578T breast): 3.48 µM
- GI50 (HT29 colon): 1.88 µM
- TGI (HT29 colon): 3.72 µM
- GI50 (IGROV1 ovarian): 1.79 µM
- TGI (IGROV1 ovarian): 3.39 µM
- GI50 (K-562 leukemia): 1.95 µM
- TGI (K-562 leukemia): 3.97 µM
- GI50 (KM12 colon): 1.87 µM
- TGI (KM12 colon): 3.57 µM
- GI50 (LOX IMVI melanoma): 1.74 µM
- TGI (LOX IMVI melanoma): 3.26 µM
- GI50 (M14 melanoma): 1.8 µM
- TGI (M14 melanoma): 3.37 µM
- GI50 (MALME-3M melanoma): 1.52 µM
- TGI (MALME-3M melanoma): 2.92 µM
- GI50 (MCF7 breast): 1.77 µM
- TGI (MCF7 breast): 3.52 µM
- GI50 (MDA-MB-231 breast): 1.78 µM
- TGI (MDA-MB-231 breast): 3.25 µM
- GI50 (MDA-MB-435): 1.77 µM
- TGI (MDA-MB-435): 3.17 µM
- GI50 (MOLT-4 leukemia): 1.93 µM
- TGI (MOLT-4 leukemia): 3.64 µM
- GI50 (NCI-H226 lung): 1.78 µM
- TGI (NCI-H226 lung): 3.83 µM
- GI50 (NCI-H23 lung): 1.8 µM
- TGI (NCI-H23 lung): 3.42 µM
- GI50 (NCI-H460 lung): 1.84 µM
- TGI (NCI-H460 lung): 3.38 µM
- GI50 (NCI-H522 lung): 1.77 µM
- TGI (NCI-H522 lung): 3.37 µM
- GI50 (NCI/ADR-RES ovarian): 1.81 µM
- TGI (NCI/ADR-RES ovarian): 3.48 µM
- GI50 (OVCAR-3 ovarian): 1.88 µM
- TGI (OVCAR-3 ovarian): 3.44 µM
- GI50 (OVCAR-4 ovarian): 2.15 µM
- TGI (OVCAR-4 ovarian): 4.8 µM
- GI50 (OVCAR-5 ovarian): 1.68 µM
- TGI (OVCAR-5 ovarian): 3.07 µM
- GI50 (OVCAR-8 ovarian): 2.04 µM
- TGI (OVCAR-8 ovarian): 4.24 µM
- GI50 (PC-3 prostate): 1.76 µM
- TGI (PC-3 prostate): 3.26 µM
- GI50 (RPMI-8226 leukemia): 2.02 µM
- TGI (RPMI-8226 leukemia): 4.32 µM
- GI50 (RXF 393 renal): 2.02 µM
- TGI (RXF 393 renal): 3.64 µM
- GI50 (SF-268 CNS): 1.83 µM
- TGI (SF-268 CNS): 3.45 µM
- GI50 (SF-295 CNS): 1.74 µM
- TGI (SF-295 CNS): 3.3 µM
- GI50 (SF-539 CNS): 1.75 µM
- TGI (SF-539 CNS): 3.15 µM
- GI50 (SK-MEL-2 melanoma): 1.77 µM
- TGI (SK-MEL-2 melanoma): 3.35 µM
- GI50 (SK-MEL-28 melanoma): 1.7 µM
- TGI (SK-MEL-28 melanoma): 3.09 µM
- GI50 (SK-MEL-5 melanoma): 1.78 µM
- TGI (SK-MEL-5 melanoma): 3.25 µM
- GI50 (SK-OV-3 ovarian): 1.93 µM
- TGI (SK-OV-3 ovarian): 3.95 µM
- GI50 (SN12C renal): 1.67 µM
- TGI (SN12C renal): 3.22 µM
- GI50 (SNB-19 CNS): 1.74 µM
- TGI (SNB-19 CNS): 3.18 µM
- GI50 (SNB-75 CNS): 1.4 µM
- TGI (SNB-75 CNS): 2.8 µM
- GI50 (SR leukemia): 1.61 µM
- TGI (SR leukemia): 3.43 µM
- GI50 (SW-620 colon): 1.9 µM
- TGI (SW-620 colon): 3.59 µM
- GI50 (T-47D breast): 1.59 µM
- TGI (T-47D breast): 3.4 µM
- GI50 (TK-10 renal): 1.75 µM
- TGI (TK-10 renal): 3.27 µM
- GI50 (U251 CNS): 1.77 µM
- TGI (U251 CNS): 3.35 µM
- GI50 (UACC-257 melanoma): 1.74 µM
- TGI (UACC-257 melanoma): 3.26 µM
- GI50 (UACC-62 melanoma): 1.66 µM
- TGI (UACC-62 melanoma): 3.05 µM
- GI50 (UO-31 renal): 1.54 µM
- TGI (UO-31 renal): 2.91 µM
